Data taken from US20240343704A1, “HALO-SUBSTITUTED AMINO PYRIDINE COMPOUNDS AS INHIBITORS OF THE HAEMATOPOIETIC PROGENITOR KINASE 1 (HPK1)” (priority 2021, published 2024).
Like-named read-outs stand apart in the source and are kept apart here.

Tests used:
Lck (h) = Lck (h) (Homo sapiens, UniProt P06239); experiment: Lck Human  Kinase Enzymatic Radiometric Assay; assay type: biochemical
Method in brief: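 Substrate 33P-incorporation measured by scintillation counting after spotting on P30 filtermat and phosphoric acid washes. Human Lck reacted 40 min at RT in 50 mM Tris pH 7.5 with 10 mM MgAcetate, [gamma-33P]-ATP, 250 uM Cdc2 peptide, 0.1 mM EGTA and 0.1 mM Na3VO4.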

[1] = target: T1, Recombinant (1-346) HPK1 (h) (Homo sapiens, UniProt Q92918); experiment: HPK1 Human STE Kinase Enzymatic Radiometric Assay; assay type: biochemical
T1 construct: Recombinant (1-346) HPK1 (h) is incubated with 8 mM MOPS pH 7.0
T1 sequence (Q92918 1-346): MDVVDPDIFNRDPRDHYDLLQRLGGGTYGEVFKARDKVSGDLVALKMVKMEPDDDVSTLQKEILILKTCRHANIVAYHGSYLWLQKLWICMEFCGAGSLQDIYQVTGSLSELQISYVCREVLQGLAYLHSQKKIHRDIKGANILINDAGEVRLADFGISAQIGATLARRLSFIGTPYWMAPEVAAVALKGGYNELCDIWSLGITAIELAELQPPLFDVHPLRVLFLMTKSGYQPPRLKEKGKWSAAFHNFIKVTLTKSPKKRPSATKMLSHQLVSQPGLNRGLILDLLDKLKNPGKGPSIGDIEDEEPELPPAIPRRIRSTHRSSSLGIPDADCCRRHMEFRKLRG
Method: A stock solution of 10 mM of test compound is prepared in DMSO. The compound plate was prepared by 3-fold and 9-point serial dilutions. […] The reaction is initiated by The addition of the Mg/ATP mix. After incubation for 40 minutes at RT, the reaction is stopped by the addition of phosphoric acid to a concentration of 0.5%.

Sequence of Lck (h) (P06239 whole entry): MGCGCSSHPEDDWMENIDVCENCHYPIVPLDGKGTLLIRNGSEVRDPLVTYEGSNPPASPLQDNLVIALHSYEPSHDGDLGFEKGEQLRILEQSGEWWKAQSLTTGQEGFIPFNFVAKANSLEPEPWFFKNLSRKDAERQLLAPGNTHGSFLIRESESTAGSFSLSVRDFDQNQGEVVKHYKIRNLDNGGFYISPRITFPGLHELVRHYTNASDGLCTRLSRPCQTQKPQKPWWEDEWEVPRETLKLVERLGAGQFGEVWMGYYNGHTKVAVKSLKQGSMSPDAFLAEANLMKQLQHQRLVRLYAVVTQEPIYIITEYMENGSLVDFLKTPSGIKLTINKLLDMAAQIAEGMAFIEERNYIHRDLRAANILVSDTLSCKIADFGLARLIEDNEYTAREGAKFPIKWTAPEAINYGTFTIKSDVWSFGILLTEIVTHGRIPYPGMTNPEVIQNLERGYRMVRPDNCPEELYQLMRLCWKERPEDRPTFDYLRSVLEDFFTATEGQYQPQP

| Compound | IC50 (Lck (h); read-out: Lck IC50 nM Range*) | IC50 ([1]; read-out: HPK1 IC50 nM Range*) | IC50 (Lck (h)) | IC50 [1] |
| --- | --- | --- | --- | --- |
| CNCC1Cc2cc(-c3cc(-c4ccc(N5CCN(C(C)C)CC5)cc4)c(F)nc3N)ccc2C(=O)N1 (stereo not drawn) [I-286, 6-(2-amino-6-fluoro-5-(4-(4-isopropylpiperazin-1-yl)phenyl)pyridin-3-yl)-3-((methylamino)methyl)-3,4-dihydroisoquinolin-1(2H)-one] | > 1000 nM | 0.1 to 10 nM | – | – |
| CC(C)[C@@H]1CN(c2ccc(-c3cc(-c4ccc5c(c4)CCNC5=O)c(N)nc3F)cc2)CCN1C [I-48, (R)-6-(2-amino-6-fluoro-5-(4-(3-isopropyl-4-methylpiperazin-1-yl)phenyl)pyridin-3-yl)-3,4-dihydroisoquinolin-1(2H)-one] | > 1000 nM | 0.1 to 10 nM | – | – |
| Nc1nc(F)c(-c2ccc(C3CCCN(CCO)C3)cc2)cc1-c1ccc2c(c1)CCNC2=O (stereo not drawn) [I-82, 6-(2-amino-6-fluoro-5-(4-(1-(2-hydroxyethyl)piperidin-3-yl)phenyl)pyridin-3-yl)-3,4-dihydroisoquinolin-1(2H)-one] | > 1000 nM | 0.1 to 10 nM | – | – |
| CCN(C)C1CCN(c2ccc(-c3cc(-c4ccc5c(c4)CCNC5=O)c(N)nc3F)cc2)C1 (stereo not drawn) [I-158, 6-(2-amino-5-(4-(3-(ethyl(methyl)amino)pyrrolidin-1-yl)phenyl)-6-fluoropyridin-3-yl)-3,4-dihydroisoquinolin-1(2H)-one] | 101 to 1000 nM | 0.1 to 10 nM | – | – |
| Nc1nc(F)c(-c2ccc(C3=CCNC3)cc2)cc1-c1ccc2c(c1)CCNC2=O [I-109, 6-(2-amino-5-(4-(2,5-dihydro-1H-pyrrol-3-yl)phenyl)-6-fluoropyridin-3-yl)-3,4-dihydroisoquinolin-1(2H)-one 2,2,2-trifluoroacetate] | > 1000 nM | 0.1 to 10 nM | – | – |
| CN1CCCN(c2ccc(-c3cc(-c4ccc5c(c4)CCNC5=O)c(N)nc3F)cc2)CC1 [I-277, 6-(2-amino-6-fluoro-5-(4-(4-methyl-1,4-diazepan-1-yl)phenyl)pyridin-3-yl)-3,4-dihydroisoquinolin-1(2H)-one] | > 1000 nM | 0.1 to 10 nM | – | – |
| COCCN1CCC(OC)(c2ccc(-c3cc(-c4ccc5c(c4)CCNC5=O)c(N)nc3F)cc2)CC1 [I-208, 6-(2-amino-6-fluoro-5-(4-(4-methoxy-1-(2-methoxyethyl)piperidin-4-yl)phenyl)pyridin-3-yl)-3,4-dihydroisoquinolin-1(2H)-one] | > 1000 nM | 0.1 to 10 nM | – | – |
| Nc1nc(F)c(-c2ccc(C3CCN(CC(F)F)CC3)cc2)cc1-c1ccc2c(c1)CCNC2=O [I-43, 6-(2-amino-5-(4-(1-(2,2-difluoroethyl)piperidin-4-yl)phenyl)-6-fluoropyridin-3-yl)-3,4-dihydroisoquinolin-1(2H)-one] | > 1000 nM | 0.1 to 10 nM | – | – |
| Cc1cc2cc(-c3cc(-c4ccc(N5CCN(CC6CC6)CC5)cc4)c(F)nc3N)cc(F)c2c(=O)[nH]1 [I-454, 6-(2-amino-5-(4-(4-(cyclopropylmethyl)piperazin-1-yl)phenyl)-6-fluoropyridin-3-yl)-8-fluoro-3-methylisoquinolin-1(2H)-one] | > 1000 nM | 0.1 to 10 nM | – | – |
| CC(C)N1CCC(Oc2ccc(-c3cc(-c4ccc5c(c4)CCNC5=O)c(N)nc3F)c3c2OCO3)CC1 [I-275, 6-(2-amino-6-fluoro-5-(7-((1-isopropylpiperidin-4-yl)oxy)benzo[d][1,3]dioxol-4-yl)pyridin-3-yl)-3,4-dihydroisoquinolin-1(2H)-one] | > 1000 nM | 0.1 to 10 nM | – | – |
| Nc1nc(F)c(-c2ccc(N3CCNCC3)c(C(F)(F)F)c2)cc1-c1ccc2c(c1)CCNC2=O [I-185, 6-(2-amino-6-fluoro-5-(4-(piperazin-1-yl)-3-(trifluoromethyl)phenyl)pyridin-3-yl)-3,4-dihydroisoquinolin-1(2H)-one] | > 1000 nM | 0.1 to 10 nM | – | – |
| CC(C)N1CCN(c2ccc(-c3cc(-c4cc5cc[nH]c(=O)c5cc4F)c(N)nc3F)cc2)CC1 [I-373, 6-(2-amino-6-fluoro-5-(4-(4-isopropylpiperazin-1-yl)phenyl)pyridin-3-yl)-7-fluoroisoquinolin-1(2H)-one] | 11 to 100 nM | 0.1 to 10 nM | – | – |
| CC(C)(C)OC(=O)N1CCC2(CC1)OCc1cc(-c3cc(-c4ccc5c(c4)CCNC5=O)c(N)nc3F)ccc1O2 [I-173, tert-butyl 6-(6-amino-2-fluoro-5-(1-oxo-1,2,3,4-tetrahydroisoquinolin-6-yl)pyridin-3-yl)-4H-spiro[benzo[d][1,3]dioxine-2,4′-piperidine]-1′-carboxylate] | – | – | > 1000 nM | 11 to 100 nM |
| CCN1CCC(c2ccc(-c3cc(-c4ccc5c(c4)CCNC5=O)c(N)nc3F)cc2)C1 (stereo not drawn) [I-235, 6-(2-amino-5-(4-(1-ethylpyrrolidin-3-yl)phenyl)-6-fluoropyridin-3-yl)-3,4-dihydroisoquinolin-1(2H)-one] | > 1000 nM | 0.1 to 10 nM | – | – |
| Nc1nc(F)c(-c2ccc3c(c2)OCCCO3)cc1-c1ccc2c(c1)CCNC2=O [I-204, 6-(2-amino-5-(3,4-dihydro-2H-benzo[b][1,4]dioxepin-7-yl)-6-fluoropyridin-3-yl)-3,4-dihydroisoquinolin-1(2H)-one] | > 1000 nM | 0.1 to 10 nM | – | – |
| Nc1nc(F)c(-c2ccc(N3CCS(=O)(=O)CC3)cc2)cc1-c1cc(F)c2c(c1)CCNC2=O [I-359, 6-(2-amino-5-(4-(1,1-dioxidothiomorpholino)phenyl)-6-fluoropyridin-3-yl)-8-fluoro-3,4-dihydroisoquinolin-1(2H)-one] | > 1000 nM | 0.1 to 10 nM | – | – |
| Nc1nc(F)c(-c2ccc(S(=O)(=O)C3CC3)cc2)cc1-c1ccc2c(c1)CCNC2=O [I-63, 6-(2-amino-5-(4-(cyclopropylsulfonyl)phenyl)-6-fluoropyridin-3-yl)-3,4-dihydroisoquinolin-1(2H)-one] | > 1000 nM | 0.1 to 10 nM | – | – |
| Nc1nc(F)c(-c2ccc3c(c2)CCNC3)cc1-c1cc2c(cc1F)C(=O)NCC2 [I-287, 2,2,2-trifluoroacetate] | > 1000 nM | 0.1 to 10 nM | – | – |
| CN1CCN(c2ccc(-c3cc(-c4ccc5c(c4)CCNC5=O)c(N)nc3Cl)cc2)CC1 [I-74, 6-(2-amino-6-chloro-5-(4-(4-methylpiperazin-1-yl)phenyl)pyridin-3-yl)-3,4-dihydroisoquinolin-1(2H)-one] | > 1000 nM | 11 to 100 nM | – | – |
| Nc1nc(F)c(-c2ccc(C3CCCCN3C3COC3)cc2)cc1-c1ccc2c(c1)CCNC2=O (stereo not drawn) [I-153, 6-(2-amino-6-fluoro-5-(4-(1-(oxetan-3-yl)piperidin-2-yl)phenyl)pyridin-3-yl)-3,4-dihydroisoquinolin-1(2H)-one] | > 1000 nM | 11 to 100 nM | – | – |
| Nc1nc(F)c(-c2ccc([C@@]34C[C@@H]3CN(C3COC3)C4)cc2)cc1-c1ccc2c(c1)CCNC2=O [I-156, 6-(2-amino-6-fluoro-5-(4-((1R,5S)-3-(oxetan-3-yl)-3-azabicyclo[3.1.0]hexan-1-yl)phenyl)pyridin-3-yl)-3,4-dihydroisoquinolin-1(2H)-one] | > 1000 nM | 0.1 to 10 nM | – | – |
| CN1CCN(c2ccc(-c3cc(-c4ccc5c(c4)C(C)(C)NC5=O)c(N)nc3F)cc2)C=N1 [I-37, 5-(2-amino-6-fluoro-5-(4-(1-methyl-5,6-dihydro-1,2,4-triazin-4(1H)-yl)phenyl)pyridin-3-yl)-3,3-dimethylisoindolin-1-one 2,2,2-trifluoroacetate] | > 1000 nM | 11 to 100 nM | – | – |
| CN1CC=C(c2ccc(-c3cc(-c4ccc5c(c4)CCNC5=O)c(N)nc3Cl)cc2)CC1 [I-230, 6-(2-amino-6-chloro-5-(4-(1-methyl-1,2,3,6-tetrahydropyridin-4-yl)phenyl)pyridin-3-yl)-3,4-dihydroisoquinolin-1(2H)-one] | > 1000 nM | 11 to 100 nM | – | – |
| CN1CCC(c2ccc(-c3cc(-c4cc5c(cc4F)C(=O)NCC5)c(N)nc3Cl)cc2)CC1 [I-233, 6-(2-amino-6-chloro-5-(4-(1-methylpiperidin-4-yl)phenyl)pyridin-3-yl)-7-fluoro-3,4-dihydroisoquinolin-1(2H)-one] | > 1000 nM | 11 to 100 nM | – | – |
| CC(C)N1CCC(Oc2ccc(-c3cc(-c4ccc5c(c4)CCNC5=O)c(N)nc3F)cc2C(F)(F)F)CC1 [I-261, 6-(2-amino-6-fluoro-5-(4-((1-isopropylpiperidin-4-yl)oxy)-3-(trifluoromethyl)phenyl)pyridin-3-yl)-3,4-dihydroisoquinolin-1(2H)-one] | > 1000 nM | 11 to 100 nM | – | – |
| CC(C)N1CCCN(c2ccc(-c3cc(-c4ccc5c(c4)CCNC5=O)c(N)nc3F)cc2)CC1 [I-279, 6-(2-amino-6-fluoro-5-(4-(4-isopropyl-1,4-diazepan-1-yl)phenyl)pyridin-3-yl)-3,4-dihydroisoquinolin-1(2H)-one] | > 1000 nM | 0.1 to 10 nM | – | – |
| COCCN1CCCC(c2ccc(-c3cc(-c4ccc5c(c4)CCNC5=O)c(N)nc3F)cc2)C1 (stereo not drawn) [I-122, 6-(2-amino-6-fluoro-5-(4-(1-(2-methoxyethyl)piperidin-3-yl)phenyl)pyridin-3-yl)-3,4-dihydroisoquinolin-1(2H)-one] | > 1000 nM | 0.1 to 10 nM | – | – |
